Data on 11 molecules can be found in ChEMBL document CHEMBL1201862, “PubChem BioAssay data set” (2004).

Some test systems named below: MDA-MB-435; Malme-3M; M14; TK-10; CCRF-CEM; EKVX; HOP-62; COLO 205; UACC-62; 786-0; ACHN; HOP-92; MCF7; NCI-H23; UO-31; LOX IMVI; OVCAR-3; SF-268; OVCAR-8; NCI-H226.
Common to all, as to assay: growth of human tumour cells (NCI), 48 h

Each structure is given as a SMILES string.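 Where inhibition never reached the appropriate level, the endpoint shown equals the highest concentration tested. Otherwise, values were interpolated linearly from a five-concentration, 48-hour dose response in 96-well plates. Abbreviation: GI50, concentration required for 50% inhibition of growth.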 The source made the active and inactive calls. No stated cut-off is given here; in the data, active = GI50 up to about 1.1 µM and inactive = higher.

With `CCOC(=O)c1cc2c(ccc3cc(C(=O)OCC)[nH]c32)[nH]1`, the GI50 is 15.3 µM (inactive) in the assay with MDA-MB-435; 43.3 µM (inactive) with Malme-3M; 23 µM (inactive) in the assay on M14; 50.2 µM (inactive) in the assay with TK-10; 27.8 µM (inactive) in the assay with CCRF-CEM; > 100 µM (inactive) in the assay with EKVX. Besides, the GI50 was 21.7 µM (inactive) with HOP-62; 65.3 µM (inactive) in the assay on COLO 205; 45.9 µM (inactive) in the assay with UACC-62; 15.6 µM (inactive) in the assay on 786-0; 55.5 µM (inactive) with ACHN; 78.7 µM (inactive) with HOP-92. The GI50 with MCF7 is 50.2 µM (inactive); in the assay with NCI-H23, 27.2 µM (inactive); in the assay on UO-31, 48.6 µM (inactive); in the assay on LOX IMVI it was 25.6 µM (inactive); in the assay with OVCAR-3, 87.1 µM (inactive); in the assay on SF-268 it was 17.1 µM (inactive).
Regarding `O=C1c2ccccc2C(=O)N1c1ccc(Cc2ccc(N3C(=O)c4ccccc4C3=O)cc2)cc1`, the GI50 in the assay on OVCAR-8, in the assay on MDA-MB-435, in the assay with Malme-3M, in the assay with M14, in the assay with TK-10 and in the assay on EKVX was > 100 µM (inactive) throughout. For the same molecule, the GI50 was 49.9 µM (inactive) with HOP-62; > 100 µM (inactive) in the assay with COLO 205; > 100 µM (inactive) in the assay on UACC-62; > 100 µM (inactive) with 786-0; > 100 µM (inactive) with ACHN; > 100 µM (inactive) with HOP-92. In addition, the GI50 was > 100 µM (inactive) with MCF7; > 100 µM (inactive) in the assay on NCI-H23; > 100 µM (inactive) in the assay on UO-31; > 100 µM (inactive) with LOX IMVI; > 21.9 µM (inactive) in the assay on OVCAR-3; > 100 µM (inactive) with SF-268. Also, the GI50 in the assay with NCI-H226 was > 100 µM (inactive).
Consider `O=C(NCCCCCCNCc1cccc2ccccc12)Nc1cccc2ccccc12`, for which the GI50 is > 100 µM (inactive) with OVCAR-8; > 100 µM (inactive) in the assay on MDA-MB-435; > 100 µM (inactive) with Malme-3M; 34.3 µM (inactive) in the assay with M14; > 100 µM (inactive) in the assay with TK-10; > 100 µM (inactive) with CCRF-CEM. Besides, the GI50 in the assay with EKVX, with HOP-62, in the assay with COLO 205, with UACC-62, with 786-0 and with ACHN was > 100 µM (inactive) each time. The GI50 in the assay with HOP-92 is > 100 µM (inactive); with MCF7, > 100 µM (inactive); in the assay with NCI-H23, > 100 µM (inactive); in the assay on UO-31 it was 51.6 µM (inactive); in the assay on LOX IMVI, > 100 µM (inactive); with OVCAR-3, > 100 µM (inactive). Also, the GI50 in the assay on SF-268 is > 100 µM (inactive).
For `CCN(CC)C(=S)SS(=O)(=O)c1cccc(N)c1`, the GI50 in the assay on OVCAR-8, in the assay with MDA-MB-435, in the assay on Malme-3M, in the assay on M14, with TK-10 and in the assay on EKVX was > 100 µM (inactive) throughout. Besides, the GI50 in the assay on HOP-62, in the assay with COLO 205, in the assay with UACC-62, in the assay on 786-0, with ACHN and with HOP-92 was > 100 µM (inactive) in each case. Besides, the GI50 with MCF7, in the assay with NCI-H23, in the assay with UO-31, in the assay with LOX IMVI, in the assay on OVCAR-3 and in the assay with SF-268 was > 100 µM (inactive) in each case. Further, the GI50 in the assay on NCI-H226 is > 100 µM (inactive).
On to `COc1c(O)cc2c(c1O)C(=O)/C(=C/c1ccc(O)cc1)CO2`, for which the GI50 is 17.9 µM (inactive) in the assay on OVCAR-8; 33.6 µM (inactive) in the assay on MDA-MB-435; 30.2 µM (inactive) with Malme-3M; 28.1 µM (inactive) in the assay on M14; 35.5 µM (inactive) in the assay with TK-10; 18.1 µM (inactive) with CCRF-CEM. Also, the GI50 is 28.8 µM (inactive) in the assay on EKVX; 33.1 µM (inactive) in the assay with HOP-62; 17.6 µM (inactive) with COLO 205; 19.2 µM (inactive) in the assay with UACC-62; 30.8 µM (inactive) with 786-0; 19.8 µM (inactive) with ACHN. Further, the GI50 with HOP-92 is 36.1 µM (inactive); with MCF7 it was 34.7 µM (inactive); in the assay with NCI-H23, 26.8 µM (inactive); in the assay on UO-31, 23 µM (inactive); in the assay with LOX IMVI it was 21.7 µM (inactive); with OVCAR-3, 27.2 µM (inactive). In addition, the GI50 in the assay on SF-268 is 29.1 µM (inactive).
Regarding `COc1ccc(CC2COc3cc(OC)cc(OC)c3C2=O)cc1` (stereo not given), the GI50 was 26.1 µM (inactive) in the assay with OVCAR-8; 3.18 µM (inactive) with MDA-MB-435; 15.3 µM (inactive) in the assay on Malme-3M; 16.4 µM (inactive) with M14; 21.3 µM (inactive) in the assay on TK-10; 29.5 µM (inactive) in the assay with EKVX. The GI50 is 24.9 µM (inactive) with HOP-62; 14.8 µM (inactive) with COLO 205; 32.8 µM (inactive) with UACC-62; 19 µM (inactive) in the assay on 786-0; 46.8 µM (inactive) in the assay with ACHN; 25.9 µM (inactive) in the assay on HOP-92. For the same molecule, the GI50 in the assay on MCF7 is 36 µM (inactive); in the assay on NCI-H23 it was 23.6 µM (inactive); in the assay with UO-31 it was 24.7 µM (inactive); in the assay with LOX IMVI, 34.5 µM (inactive); in the assay on OVCAR-3, 18.9 µM (inactive); in the assay with SF-268, 32.7 µM (inactive).
For `COC(=O)CC1CN(C(=O)OCc2ccccc2)C(C)(C)O1` (stereo not given), the GI50 with OVCAR-8 is > 100 µM (inactive); in the assay with MDA-MB-435, > 100 µM (inactive); in the assay on Malme-3M it was 45.3 µM (inactive); in the assay on M14, > 100 µM (inactive); with TK-10 it was 56.9 µM (inactive); with CCRF-CEM, > 100 µM (inactive). In addition, the GI50 is 35.2 µM (inactive) with EKVX; > 100 µM (inactive) in the assay with COLO 205; > 100 µM (inactive) in the assay on UACC-62; > 100 µM (inactive) in the assay on 786-0; > 100 µM (inactive) with ACHN; 94.6 µM (inactive) in the assay on HOP-92. In addition, the GI50 was > 100 µM (inactive) in the assay with MCF7; 28.8 µM (inactive) with NCI-H23; 38.6 µM (inactive) with UO-31; > 100 µM (inactive) in the assay with LOX IMVI; > 100 µM (inactive) with OVCAR-3; 2 µM (inactive) in the assay on NCI-H226.
Consider `Nc1nc(N)c2c(Cl)c(CNc3ccc(C(=O)NC(CC(=O)O)C(=O)O)cc3)ccc2n1` (stereo not given), for which the GI50 in the assay with OVCAR-8 was < 0.01 µM (active); in the assay with MDA-MB-435, < 0.01 µM (active); in the assay on Malme-3M it was 17.7 µM (inactive); in the assay on M14, < 0.01 µM (active); in the assay on TK-10, < 0.01 µM (active); in the assay on CCRF-CEM, < 0.01 µM (active). Further, the GI50 was < 0.01 µM (active) in the assay with EKVX; < 0.027 µM (active) with HOP-62; < 0.01 µM (active) with COLO 205; < 0.01 µM (active) with UACC-62; < 0.01 µM (active) in the assay on 786-0; < 0.01 µM (active) in the assay with ACHN. Moreover, the GI50 with HOP-92 was 0.043 µM (active); in the assay with MCF7, < 0.01 µM (active); in the assay on NCI-H23, < 0.01 µM (active); in the assay on UO-31, < 0.01 µM (active); in the assay on LOX IMVI, < 0.01 µM (active); in the assay with SF-268, < 0.01 µM (active).
As for `COc1cc2c3c(c4cc(OC)c(OC)cc4c2cc1OC)C(=O)C1CCC(=O)N1C3` (stereo not given), the GI50 is 27.2 µM (inactive) in the assay with OVCAR-8; 21.9 µM (inactive) in the assay with MDA-MB-435; 8.75 µM (inactive) with Malme-3M; 12.8 µM (inactive) in the assay on TK-10; 6.64 µM (inactive) in the assay with CCRF-CEM; 13.6 µM (inactive) with HOP-62. Also, the GI50 is 24.5 µM (inactive) in the assay on COLO 205; 16.6 µM (inactive) in the assay with UACC-62; 5.86 µM (inactive) in the assay with ACHN; 12 µM (inactive) in the assay with HOP-92; 11.9 µM (inactive) with MCF7; 55 µM (inactive) with NCI-H23. In addition, the GI50 is 24.9 µM (inactive) in the assay on LOX IMVI, 20.6 µM (inactive) in the assay with OVCAR-3 and 22.2 µM (inactive) with SF-268.
Take `CCCCN1C(=O)CS/C1=N/Nc1nc2c([nH]1)c(=O)n(C)c(=O)n2C`: the GI50 is 14.7 µM (inactive) in the assay on MDA-MB-435; 38.8 µM (inactive) with Malme-3M; 28.5 µM (inactive) in the assay with M14; > 100 µM (inactive) in the assay on TK-10; 22.2 µM (inactive) in the assay with CCRF-CEM; > 100 µM (inactive) in the assay on EKVX. Besides, the GI50 with HOP-62 was 4.62 µM (inactive); in the assay on COLO 205, > 100 µM (inactive); with UACC-62 it was 86.5 µM (inactive); with 786-0, 17.3 µM (inactive); in the assay with ACHN it was > 100 µM (inactive); in the assay on HOP-92, 43.1 µM (inactive). Moreover, the GI50 with MCF7 was 13.7 µM (inactive); in the assay on NCI-H23, > 100 µM (inactive); in the assay on UO-31, > 100 µM (inactive); in the assay on OVCAR-3, 64.1 µM (inactive); in the assay on SF-268, 7.74 µM (inactive); in the assay with NCI-H226, > 100 µM (inactive).
As for `N[C@@H]1c2c(Br)sc(Br)c2[C@H](O)[C@@H]1O`, the GI50 with OVCAR-8, in the assay on MDA-MB-435, with Malme-3M, in the assay on M14, with TK-10 and in the assay with CCRF-CEM was > 100 µM (inactive) each time. In addition, the GI50 in the assay on EKVX, in the assay with COLO 205, in the assay on UACC-62, in the assay with 786-0, in the assay on ACHN and in the assay on HOP-92 was > 100 µM (inactive) throughout. The GI50 in the assay on MCF7, in the assay with NCI-H23, in the assay on UO-31, with LOX IMVI, in the assay on OVCAR-3 and in the assay with SF-268 was > 100 µM (inactive) throughout. The GI50 in the assay on NCI-H226 was > 100 µM (inactive).
